Square brackets hold non-standard residues; d marks the D form. Peptide text beside a SMILES is read from it. NMeY = CN[C@@H](Cc1ccc(O)cc1)C(=O)O; αMeF = C[C@](N)(Cc1ccccc1)C(=O)O; Aib = CC(C)(N)C(=O)O
Tests used:
[1] = system: male C57BL/6J mouse; assay: 2-days continuous subcutaneous administration test (feeding suppressive activity); format: in vivo; details: 10 nmol/kg/day, subcutaneous Alzet pump, 2-days cumulative food consumption, control (solvent alone) = 0%
Summary of the method: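 Male C57BL/6J mice, 8-9 weeks, given test compound at 10 nmol/kg/day by subcutaneously implanted osmotic pump (50% DMSO vehicle), housed singly with free food access. Cumulative 2-day food consumption measured; suppression rate (%) calculated relative to vehicle-only controls.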

[2] = target: T1, human glucagon R (Homo sapiens, UniProt P47871); assay: Reporter assay of human glucagon R agonist activity, rise in intracellular cAMP as index (hGlucagonR/CRE-LUC/CHO-K1 cells); format: cell-based; details: luciferase reporter; 10 nM glucagon = 100%, DMSO = 0%; 4 hours incubation; read-out: Agonist activity (EC50) hGCGR
T1 construct: expressed in transfected cells; host or cells: CHO-K1 (CRE-LUC/CHO-K1 reporter cells)
T1 sequence (P47871 26-477): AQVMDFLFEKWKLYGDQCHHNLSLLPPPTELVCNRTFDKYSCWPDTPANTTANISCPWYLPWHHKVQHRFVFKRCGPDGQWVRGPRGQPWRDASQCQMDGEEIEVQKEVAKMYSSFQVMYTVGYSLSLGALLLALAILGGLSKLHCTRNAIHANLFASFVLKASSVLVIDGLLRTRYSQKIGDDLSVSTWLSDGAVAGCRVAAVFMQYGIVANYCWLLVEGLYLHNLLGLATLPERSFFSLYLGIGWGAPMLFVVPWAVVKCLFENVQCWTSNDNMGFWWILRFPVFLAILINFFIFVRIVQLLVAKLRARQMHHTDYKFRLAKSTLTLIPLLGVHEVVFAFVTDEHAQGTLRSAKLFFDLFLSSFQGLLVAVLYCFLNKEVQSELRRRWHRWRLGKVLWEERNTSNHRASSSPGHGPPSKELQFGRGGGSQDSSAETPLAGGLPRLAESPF
Source text: Evaluation of agonist activity against human GIPR, human GLP-1R and human glucagon R using rise in intracellular cAMP concentration as index
(2) Construction of Reporter Plasmid-Expressing Cell
The luciferase reporter gene having an upstream cAMP response sequence was introduced to CHO-K1 cells to construct CRE-LUC/CHO-K1 cells.
(7) Construction of Expression Plasmid for the Human Glucagon R Gene
The human glucagon R gene having a sequence identical to the sequence of GenBank Accession No. NM_000160 was cloned into pMSRα-neo vector to prepare hGlucagonR/pMSRα-neo.
(8) Introduction of the Human Glucagon R Gene into CRE-LUC/CHO-K1 Cell and Obtainment of Expressing Cell […]
The hGIPR/CRE-LUC/CHO-K1 cells were inoculated at a cell density of 25 μL/well (5×10^4 cells/well) to a 384-well white plate (Corning), and cultured overnight in Ham F12 medium containing 10% fetal bovine serum, 100 U/mL penicillin and 100 μg/mL streptomycin in a CO2 incubator of 37° C. […] After 30 minutes, the luciferase activity was measured using a plate reader Envision (PerkinElmer). […] The GIPR agonist activity was calculated with a rise in intracellular cAMP concentration as an index.
The glucagon R agonist activity was assayed in the same way as above using the hGlucagonR/CRE-LUC/CHO-K1 cells. […] The glucagon agonist activity was calculated with a rise in intracellular cAMP concentration as an index.

[3] = system: Diet-induced obesity (DIO) male C57BL/6J mice; assay: 2-weeks continuous subcutaneous administration study in DIO mice (anti-obesity activity); format: in vivo, mouse; details: 1 nmol/kg/day, subcutaneous Alzet pump, 2 weeks after start of administration; rate of weight loss, control group regarded as 0%
Procedure: 2-Weeks Continuous Subcutaneous Administration Study in DIO Mice
The anti-obesity activity of a test compound was examined by the method described below.
Diet-induced obesity (DIO) mice were prepared by feeding male C57BL/6J mice with high-fat diet (D12451: Research Diets, Inc.). The test compound was dissolved in a solvent (50% DMSO) so that sustained release would occur at 1 nmol/kg/day, and the solution was filled in the Alzet Pump (DURECT Corporation, model: 1002). The pump thus filled with the solution to be administered was immersed in physiological saline for priming, and then used. The pump was embedded by the following method. Each male DIO-C57BL/6J mouse at 35-37 weeks of age (20-26° C., allowed to take food and water ad libitum; 12-hour bright-12-hour dark cycle) was anesthetized; the skin in the upper back thereof was incised, and the above-mentioned pump was embedded subcutaneously; the incision was sutured. After weighing, this mouse was returned to the rearing cage (reared alone), and given previously weighed food; the body weight was measured every 1 to 3 days after the start of administration. The anti-obesity activity of each test compound was evaluated on the basis of the rate of weight loss 2 weeks after the start of administration, with the rate of weight loss in a control group receiving administration of the solvent alone regarded as 0%.

Compound	Food intake suppression (%) [1] [%]	EC50 [2] [nM]	Change in body weight [3]
CC[C@H](C)[C@H](NC(=O)C(C)(C)NC(=O)[C@H](Cc1ccc(O)cc1)NC(=O)[C@H](CC(=O)O)NC(=O)[C@H](CO)NC(=O)[C@@H](NC(=O)[C@](C)(Cc1ccccc1)NC(=O)[C@@H](NC(=O)CNC(=O)[C@H](CCC(=O)O)NC(=O)C(C)(C)NC(=O)[C@H](Cc1ccc(O)cc1)NC)[C@@H](C)O)[C@@H](C)O)C(=O)NC(C)(C)C(=O)N[C@@H](CC(C)C)C(=O)N[C@@H](CC(=O)O)C(=O)N[C@@H](CCCCN)C(=O)N[C@@H](CCC(N)=O)C(=O)N[C@@H](C)C(=O)N[C@@H](CCC(N)=O)C(=O)N[C@@H](C)C(=O)N[C@@H](CCC(=O)O)C(=O)N[C@@H](Cc1ccccc1)C(=O)N[C@H](C(=O)N[C@@H](CCCCN)C(=O)N[C@@H](Cc1c[nH]c2ccccc12)C(=O)N[C@@H](CC(C)C)C(=O)N[C@@H](CC(C)C)C(=O)N[C@@H](CCCCN)C(=O)NCC(=O)NCC(=O)N1CCC[C@H]1C(=O)N[C@@H](CO)C(=O)N[C@@H](CO)C(=O)NCC(=O)N[C@@H](C)C(=O)N1CCC[C@H]1C(=O)N1CCC[C@H]1C(=O)N1CCC[C@H]1C(=O)N[C@@H](CO)C(=O)N[C@@H](CCCCN)C(N)=O)C(C)C [Example 23] (H-[NMeY][Aib]EGT[αMeF]TSDY[Aib]I[Aib]LDKQAQAEFVKWLLKGGPSSGAPPPSK-NH2)	52.62	> 1000	
CC[C@H](C)[C@H](NC(=O)C(C)(C)NC(=O)[C@H](Cc1ccc(O)cc1)NC(=O)[C@H](CC(=O)O)NC(=O)[C@H](CO)NC(=O)[C@@H](NC(=O)[C@](C)(Cc1ccccc1)NC(=O)[C@@H](NC(=O)CNC(=O)[C@H](CCC(=O)O)NC(=O)C(C)(C)NC(=O)[C@@H](N)Cc1ccc(O)cc1)[C@@H](C)O)[C@@H](C)O)C(=O)NC(C)(C)C(=O)N[C@@H](CC(C)C)C(=O)N[C@@H](CC(=O)O)C(=O)N[C@@H](CCCCN)C(=O)N[C@@H](CCC(N)=O)C(=O)N[C@@H](C)C(=O)N[C@@H](CCC(N)=O)C(=O)N[C@@H](C)C(=O)N[C@@H](CCC(=O)O)C(=O)N[C@@H](Cc1ccccc1)C(=O)N[C@H](C(=O)N[C@@H](CCCCN)C(=O)N[C@@H](Cc1c[nH]c2ccccc12)C(=O)N[C@@H](CC(C)C)C(=O)N[C@@H](CC(C)C)C(=O)N[C@@H](CCCCN)C(=O)NCC(=O)NCC(=O)N1CCC[C@H]1C(=O)N[C@@H](CO)C(=O)N[C@@H](CO)C(=O)NCC(=O)N[C@@H](C)C(=O)N1CCC[C@H]1C(=O)N1CCC[C@H]1C(=O)N1CCC[C@H]1C(=O)N[C@@H](CO)C(=O)N[C@@H](CCCCN)C(N)=O)C(C)C [Example 2] (H-Y[Aib]EGT[αMeF]TSDY[Aib]I[Aib]LDKQAQAEFVKWLLKGGPSSGAPPPSK-NH2)	64.80		−16.3
CC(C)C[C@H](NC(=O)[C@H](CC(C)C)NC(=O)[C@H](Cc1c[nH]c2ccccc12)NC(=O)[C@H](CCCCN)NC(=O)[C@@H](NC(=O)[C@H](Cc1ccccc1)NC(=O)[C@H](CCC(=O)O)NC(=O)[C@H](C)NC(=O)[C@H](CCC(N)=O)NC(=O)[C@H](C)NC(=O)[C@H](CCC(N)=O)NC(=O)[C@H](CCCCN)NC(=O)[C@H](CC(=O)O)NC(=O)[C@H](CC(C)C)NC(=O)[C@H](Cc1ccc(O)cc1)NC(=O)[C@H](CCCCN)NC(=O)C(C)(C)NC(=O)[C@H](Cc1ccc(O)cc1)NC(=O)[C@H](CC(=O)O)NC(=O)[C@H](CO)NC(=O)[C@@H](NC(=O)[C@](C)(Cc1ccccc1)NC(=O)[C@@H](NC(=O)CNC(=O)[C@H](CCC(=O)O)NC(=O)C(C)(C)NC(=O)[C@@H](N)Cc1ccc(O)cc1)[C@@H](C)O)[C@@H](C)O)C(C)C)C(=O)N[C@@H](CCCCN)C(=O)NCC(=O)NCC(=O)N1CCC[C@H]1C(=O)N[C@@H](CO)C(=O)N[C@@H](CO)C(=O)NCC(=O)N[C@@H](C)C(=O)N1CCC[C@H]1C(=O)N1CCC[C@H]1C(=O)N1CCC[C@H]1C(=O)N[C@@H](CO)C(=O)N[C@@H](CCCCN)C(N)=O [Example 24] (H-Y[Aib]EGT[αMeF]TSDY[Aib]KYLDKQAQAEFVKWLLKGGPSSGAPPPSK-NH2)	54.18		−11.1
